Measured values: patent US10791741B2, “Plant growth regulator” (JIANGSU HUIFENG BIO TECHNOLOGY CO., LTD., priority 2016, dated 2020)

Test system: melon
Assay: Comprehensive test on growth regulation for melon by thidiazuron combined with amino-oligosaccharin
Type: in vivo
Details: 42 mg/kg
Method: 1. Comprehensive Test on Growth Regulation for Melon by Thidiazuron Combined with Amino-Oligosaccharin
The thidiazuron and amino-oligosaccharin were diluted with acetone to give a series of concentrations, and the crops were sprayed in the flowering phase to determine the effect of each concentration on crop growth in the field, so as to make a comprehensive evaluation with respect to the carpopodium diameter, fruit setting rate, disease inhibition rate, quality, and yield of the crops. Carpopodium diameter increase rate=(Plant height in water control group−Plant height in treatment group)/Plant height in water control group*100% Fruit setting increase rate=(Stem diameter in treatment group−Stem diameter in water control group)/Stem diameter in water control group*100% Disease reduction rate=(Disease index in water control group−Disease index in treatment group)/Disease index in water control group*100% Single fruit weight increase rate=(weight in treatment group−quality in water control group)/weight in water control group*100% Central sugar increase rate=(Central sugar content in treatment group−Central sugar content in water control group)/Central sugar content in water control group*100%

[1] = flowering phase, vs water control
[2] = sprayed in flowering phase, 1 application

## O=C(Nc1ccccc1)Nc1cnns1 [Thidiazuron, thidiazuron]
[1]
  Anthracnose index reduction rate (disease reduction rate): 17.6%
  Carpopodium diameter increase rate: 4.0%
  Central sugar increase rate: 7.4%
  Fruit setting increase rate: 8.6%
  Single fruit weight increase rate: 8.9%
[2]
  Anthracnose index: 17.76
  Carpopodium diameter: 6.65 mm
  Central sugar content: 9.36%
  Fruit setting rate: 27.0%
  Single fruit weight: 1.03 kg
